Read-outs that look alike come from different tables or passages of the source.
Legend:
[1] = test system: human hepatoma cells Hep3B; assay: Cell proliferation test (CELL TITER-GLO); type: cell-based; conditions: 3 days incubation, CTG, read-out: IC50 Value of Compound for Hep3B Cells
Description: The effect of the compounds of the present invention on the proliferation of human hepatoma cells Hep3B is evaluated by an in vitro cell test. The method used in the test was CELL TITER-GLO (CTG).
Cell plating: Take Hep3B cells in the logarithmic growth phase, digest, centrifuge at 1,000 rpm for 5 min at room temperature and collect, resuspend with EMEM medium of 10% FBS and count, and inoculate into a 384-well microplate (#3765) at a density of 800 cells/well, 20 μL in each.
Compound preparation: Dissolve the compound in DMSO to prepare a stock solution at a concentration of 10 mM, dilute the sample compound stock solution to 2 mM with DMSO (6 μL of the stock solution plus 24 μL of DMSO) as the starting concentration, and dilute the control compound stock solution to 200 μM with DMSO (2 μL of the stock solution plus 98 μL of DMSO) as the starting concentration; dilute the compound 9 times with DMSO in gradient by 3 folds, and then dilute the compound to 40 times the final concentration dose with cell culture medium (2 μL of the compound plus 78 μL of […]).
Cell dosing: Add 5 μL (5×) of the compound to the corresponding wells, make sure the final concentrations of sample compounds are respectively 10000 nM, 3333 nM, 1111 nM, 370.37 nM, 123.46 nM, 41.15 nM, 13.72 nM, 4.57 nM, 1.52 nM, 0.50 nM, take 0.5% DMSO as the negative control, and incubate the microplate at 37° C. in 5% C02 for 3 days.
CTG detection: After 3 days of incubation, add 5 μL of Cell Titer-Glo® reagent per well, incubate on a shaker at 300 rpm for 60 min protected from light at room temperature, read the luminescence signals with microplate reader Spark 10M, and calculate the semi-inhibitory concentration of the compound on cell proliferation, that is, the IC50 value, with the analysis software, as shown in Table 2.

tyrosine kinase FGFR1 = tyrosine kinase FGFR1 (Homo sapiens (Human), UniProt P11362); assay: In vitro kinase test (HTRF), FGFR1; type: biochemical; conditions: 60 min preincubation, 30 min reaction at 37° C.
Description: (§1) The effect of compounds of the present invention on tyrosine kinase FGFR1 and FGFR4 activity is evaluated by an in vitro kinase test. The method used in the test was homogeneous time-resolved fluorescence (HTRF).
(§2) Compound preparation: Add 45 μL of DMSO to 5 μL of stock solution at a concentration of 10 mM to prepare the solution LY2874455 at 1000 µM; then add 12 μL of the compound at 1000 μM to 88 µL of DMSO to prepare the solution LY2874455 at 120 μM as the starting concentration; add 48 μL of DMSO to 2 μL of stock solution at a concentration of 10 mM to prepare the solution BLU554 at 400 μM as the starting concentration; add 15 μL of DMSO to 10 μL of sample compound stock solution at a concentration of 10 mM to prepare a sample compound solution at 4 mM as the starting concentration; transfer the compound solution to the target plate with the dispenser Echo.
(§3) Kinase reaction: Add 5 μL of kinase solution to each well, incubate the compound and kinase at room temperature for 60 min, add 5 μL of substrate and ATP mixture to start reacting at 37° C. for a certain period of time (30 min for FGFR1 kinase test, and 40 min for FGFR4 kinase test), and then add 10 μL of X1665 and antibody detection reagent mixture to stop; after 60 min of incubation at room temperature, read the TR-FRET signal with microplate reader SPARK 10M at the transmit wavelength of 665 nm/612 nM. Test enzyme activity at 10 concentrations for each compound, and calculate the IC50 value of the compound with the data with the analysis software, as shown in Table 1.

tyrosine kinase FGFR4 = tyrosine kinase FGFR4 (Homo sapiens (Human), UniProt P22455); assay: In vitro kinase test (HTRF), FGFR4; type: biochemical; conditions: for IC50: HTRF, 60 min preincubation, 40 min reaction at 37° C.; for FGFR1 IC50 / FGFR4 IC50 ratio (FGFR4 selectivity): ratio of the FGFR1 and FGFR4 IC50 values
Description: as §1, §2, §3

Sequence of tyrosine kinase FGFR4 (P22455 22-802): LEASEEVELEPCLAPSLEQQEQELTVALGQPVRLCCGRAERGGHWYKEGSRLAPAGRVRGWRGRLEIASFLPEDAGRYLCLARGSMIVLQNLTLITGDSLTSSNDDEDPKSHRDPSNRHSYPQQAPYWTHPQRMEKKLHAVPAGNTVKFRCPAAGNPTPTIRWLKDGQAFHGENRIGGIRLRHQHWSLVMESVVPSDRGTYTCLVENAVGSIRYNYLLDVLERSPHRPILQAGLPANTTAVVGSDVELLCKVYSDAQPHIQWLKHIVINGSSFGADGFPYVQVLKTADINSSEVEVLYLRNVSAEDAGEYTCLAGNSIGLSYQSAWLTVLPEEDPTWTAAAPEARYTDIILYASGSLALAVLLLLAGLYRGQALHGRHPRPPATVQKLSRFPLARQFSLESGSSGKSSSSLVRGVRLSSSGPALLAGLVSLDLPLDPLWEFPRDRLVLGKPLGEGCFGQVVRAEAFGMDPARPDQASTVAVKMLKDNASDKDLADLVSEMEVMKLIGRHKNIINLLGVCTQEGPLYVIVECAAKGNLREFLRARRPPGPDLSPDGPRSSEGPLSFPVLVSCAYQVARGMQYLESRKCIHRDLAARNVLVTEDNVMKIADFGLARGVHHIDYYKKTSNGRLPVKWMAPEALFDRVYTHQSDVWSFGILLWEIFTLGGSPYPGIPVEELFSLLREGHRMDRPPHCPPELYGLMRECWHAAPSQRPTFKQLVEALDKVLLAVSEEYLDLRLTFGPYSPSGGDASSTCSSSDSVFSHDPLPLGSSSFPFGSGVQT
Sequence of tyrosine kinase FGFR1 (P11362 22-822): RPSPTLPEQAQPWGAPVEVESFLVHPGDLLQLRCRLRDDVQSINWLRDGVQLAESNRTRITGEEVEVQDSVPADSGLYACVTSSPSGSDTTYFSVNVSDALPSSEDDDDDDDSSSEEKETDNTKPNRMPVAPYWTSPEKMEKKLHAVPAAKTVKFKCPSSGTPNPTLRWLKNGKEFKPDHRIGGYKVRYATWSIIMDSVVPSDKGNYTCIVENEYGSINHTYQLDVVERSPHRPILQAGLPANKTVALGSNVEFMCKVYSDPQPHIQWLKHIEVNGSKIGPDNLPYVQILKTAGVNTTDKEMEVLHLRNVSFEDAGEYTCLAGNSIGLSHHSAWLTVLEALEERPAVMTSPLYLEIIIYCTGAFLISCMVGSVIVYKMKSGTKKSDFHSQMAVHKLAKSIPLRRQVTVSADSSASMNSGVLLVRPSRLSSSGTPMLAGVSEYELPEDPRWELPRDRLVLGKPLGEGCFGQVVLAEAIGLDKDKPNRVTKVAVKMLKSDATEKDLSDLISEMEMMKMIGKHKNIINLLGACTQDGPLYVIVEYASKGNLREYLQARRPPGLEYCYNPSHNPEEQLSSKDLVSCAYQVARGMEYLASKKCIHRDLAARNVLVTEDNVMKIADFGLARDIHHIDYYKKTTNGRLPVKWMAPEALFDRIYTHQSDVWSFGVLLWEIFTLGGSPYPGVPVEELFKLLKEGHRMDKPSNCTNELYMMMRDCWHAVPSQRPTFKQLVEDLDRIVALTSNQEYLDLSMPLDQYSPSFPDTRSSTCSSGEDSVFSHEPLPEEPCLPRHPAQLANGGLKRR

Structure (SMILES) | IC50 ([1]; Homo sapiens, Hep3B, 72 h) | IC50 (tyrosine kinase FGFR1) | IC50 (tyrosine kinase FGFR4) | IC50 [1] | FGFR1 IC50 / FGFR4 IC50 ratio (FGFR4 selectivity) (tyrosine kinase FGFR4)
C=CC(=O)N[C@H]1CCOC[C@H]1Nc1ncc2cc(-c3c(Cl)c(OC)cc(OC)c3Cl)ccc2n1 [BLU554, reference compound] | 38.4 nM | 624 nM | 5.98 nM |  | 
C=CC(=O)NCc1cc2c(cn1)CN(c1c(F)c(OC)nc(OC)c1F)C(=O)C21CC1 [Compound 1, N-((2′-(3,5-difluoro-2,6-dimethoxypyridine-4-yl)-3′-oxo-2′,3′-dihydro-1′H-spiro[cyclopropane-1,4′-[2,7]naphthine]-6′-yl)methyl) acrylamide] |  | 3660 nM | 8.57 nM | 52.6 nM | 426
C=CC(=O)Nc1cc(N2CCC(N3CCOCC3)CC2)ccc1Nc1cc2c(cn1)CN(c1c(F)c(OC)nc(OC)c1F)C(=O)C21CC1 [Compound 5, N-(2-((2′-(3,5-difluoro-2,6-dimethoxypyridine-4-yl)-3′-oxo-2′,3′-dihydro-1′H-spiro[cyclopropane-1,4′-[2,7]naphthyridine]-6′-yl)-amino)-5-(4-morpholinopiperidin-1-yl)phenyl)acrylamide] |  | 6 nM | 0.3 nM |  | 20
C=CC(=O)Nc1ccccc1Nc1cc2c(cn1)CN(c1c(F)c(OC)nc(OC)c1F)C(=O)C21CC1 [Compound 7, N-(2-((2′-(3,5-difluoro-2,6-dimethoxypyridine-4-yl)-3′-oxo-2′,3′-dihydro-1′H-spiro[cyclopropane-1,4′-[2,7]naphthol]-6′-yl)amino)phenyl)acrylamide] |  | 4240 nM | 5.42 nM |  | 782
C=CC(=O)Nc1cccc(C)c1Nc1cc2c(cn1)CN(c1c(F)c(OC)nc(OC)c1F)C(=O)C21CC1 [Compound 8, N-(2-((2′-(3,5-difluoro-2,6-dimethoxypyridine-4-yl)-3′-oxo-2′,3′-dihydro-1′H-spiro[cyclopropane-1,4′-[2,7]naphthyridine]-6′-yl)amino)-3-methylphenyl)acrylamide] | 56.5 nM | 8570 nM | 2.7 nM |  | 3172
C=CC(=O)Nc1cc(N2CCOCC2)ccc1Nc1cc2c(cn1)CN(c1c(F)c(OC)nc(OC)c1F)C(=O)C21CC1 [Compound 10, N-(2-((2′-(3,5-difluoro-2,6-dimethoxypyridine-4-yl)-3′-oxo-2′,3′-dihydro-1′H-spiro[cyclopropane-1,4′-[2,7]naphthyridine]-6′-yl)-amino)-5-morpholinophenyl) acrylamide] | 14 nM | 984 nM | 0.67 nM |  | 1468
C=CC(=O)Nc1cc(N2CCOCC2)c(F)cc1Nc1cc2c(cn1)CN(c1c(F)c(OC)nc(OC)c1F)C(=O)C21CC1 [Compound 14, N-(2-((2′-(3,5-difluoro-2,6-dimethoxypyridine-4-yl)-3′-oxo-2′,3′-dihydro-1′H-spiro[cyclopropane-1,4′-[2,7]naphthyridine]-6′-yl)-amino)-4-fluoro-5-morpholinophenyl)acrylamide] | 38.1 nM | > 9930 nM | 2.6 nM |  | 3817
C=CC(=O)Nc1cc(N2CCOCC2C)ccc1Nc1cc2c(cn1)CN(c1c(F)c(OC)nc(OC)c1F)C(=O)C21CC1 (centres unmarked) [Compound 15, N-(2-((2′-(3,5-difluoro-2,6-dimethoxypyridine-4-yl)-3′-oxo-2′,3′-dihydro-1′H-spiro[cyclopropane-1,4′-[2,7]naphthyridine]-6′-yl)-amino)-5-(3-methomorpholinyl)phenyl)acrylamide] |  | 2280 nM | 0.63 nM | 15.3 nM | 3617

Source: patent US20240199625A1, “BICYCLIC HETEROCYCLIC FGFR4 INHIBITOR, PHARMACEUTICAL COMPOSITION AND PREPARATION COMPRISING SAME, AND APPLICATION THEREOF” (Hangzhou Apeloa Medicine Research Institute Co., Ltd., priority 2021, published 2024)
